Laboratory results: paper PMC8689140 (Frontiers in Pharmacology, 2021)

Experiments:
CYP2C9 = test system: T1, CYP2C9; test: P450 phenotyping, chemical inhibitors in HLMs, CYP2C9; format: in vitro ADME, human; conditions: CYP2C9 probe substrate, 5 µM, specific inhibitor
T1 construct: tissue Corning Co., Ltd (Shanghai, China); host or cells: human liver microsomes
Description: (§1) According to the result of metabolite identification, three metabolites were selected as the targets for metabolic phenotyping. Seven CYP isozymes (CYP1A2, CYP2B6, CYP2C8, CYP2C9, CYP2C19, CYP2D6, and CYP3A4) were investigated using two kinds of methods: chemical inhibitors in human liver microsomes (HLMs) method (Experiment 1) and rhCYP isozymes method (Experiment 2).
Experiment 1: HLMs were thawed on ice and diluted in100 mM sodium phosphate buffer (pH 7.4) containing 3 mM magnesium chloride. […] After 10 min of preincubation at 37°C, the reactions were initiated by adding 20 µL of NADPH (10 mM) and then incubated at 37 °C in a shaking water bath for 30 min. The samples were prepared in triplicates. The reactions were terminated by adding 600 µL of ice-cold acetonitrile and stored at −20°C until analysis. Control samples without NADPH and 0-time point samples were included. As positive controls, the probe substrates of each P450 isozyme under the same conditions were tested, and specific inhibitors was added. Next, the samples were centrifuged at 13,000 rpm for 10 min, the supernatants were determined by LC–MS/MS.

rhCYP CYP2C9 = test system: T2, rhCYP CYP2C9; test: P450 phenotyping, rhCYP isozymes, CYP2C9; format: in vitro ADME, human; conditions: rhCYP2C9 probe substrate, 1 µM
T2 construct: purchased Corning Co., Ltd (Shanghai, China)
Text: as §1
Experiment 2: Each rhCYP isozyme was thawed and diluted as above method. As positive controls, the probe substrates of each P450 isozyme were tested under the same conditions. […] Vx ([…]) is the production rate of metabolites for each rhCYP isozyme.

In the case of `O=C(O)Cc1ccccc1Nc1c(Cl)cccc1Cl` [Diclofenac], the “%Inhibation in HLM” value (CYP2C9) is reported as 89.9% and the “CL int in rhCYP” value (rhCYP CYP2C9) is reported as 6.15 µL/min/pmol.
